Structures can show the parent of a compound that is named as a salt.
The molecules below were run on Acinetobacter baumannii ATCC17978 (assay: Antimicrobial susceptibility testing: 90% growth inhibitory concentration (IC90) determination). Details: 90% growth inhibitory concentration, Acinetobacter baumannii ATCC17978, Iso-Sensitest broth, OD 600 nm over 16 h; hydrochloride; read-out: ATCC17978 IC90.
Assay type: cell-based
Description: The in vitro antimicrobial activity of the compounds was determined according to the following procedure:
The assay used a 10-points Iso-Sensitest broth medium to measure quantitatively the in vitro activity of the compounds against Acinetobacter baumannii ATCC17978 and Acinetobacter baumannii ATCC17961.
Stock compounds in DMSO were serially twofold diluted (e.g. range from 50 to 0.097 μM final concentration) in 384 wells microtiter plates and inoculated with 49 μl the bacterial suspension in Iso-Sensitest medium to have a final cell concentration of ˜5×10^(5) CFU/ml in a final volume/well of 50 ul/well. Microtiter plates were incubated at 35±2° C.
Bacterial cell growth was determined with the measurement of optical density at λ=600 nm each 20 minutes over a time course of 16 h. Growth inhibition was calculated during the logarithmic growth of the bacterial cells with determination of the concentration inhibiting 50% (IC50) and 90% (IC90) of the growth.
Table 1 provides the 90% growth inhibitory concentrations (IC90) in micromoles per liter of the compounds of present invention obtained against the strain Acinetobacter baumannii ATCC17978 and Acinetobacter baumannii ATCC17961.

Structure (SMILES) | IC90
COc1ccc(-c2cnc3c(Nc4ccc(C(=O)N5CCC(C(=O)NCC6CNC6)CC5)c(Cl)c4)nccn23)cc1F [Example 54, N-(azetidin-3-ylmethyl)-1-[2-chloro-4-[[3-(3-fluoro-4-methoxyphenyl)imidazo[1,2-a]pyrazin-8-yl]amino]benzoyl]piperidine-4-carboxamide;hydrochloride] | 130 nM

Same assay, conditions: 90% growth inhibitory concentration, Acinetobacter baumannii ATCC17978, Iso-Sensitest broth, OD 600 nm over 16 h; read-out: ATCC17978 IC90

Structure (SMILES) | IC90
CNCC(=O)N1CCN(C(=O)c2ccc(Nc3nccn4c(-c5ccc(OC)c(F)c5)cnc34)cc2Cl)CC1 [Example 40, 1-(4-(2-chloro-4-((3-(3-fluoro-4-methoxyphenyl)imidazo [1,2-a]pyrazin-8-yl)amino)benzoyl)piperazin-1-yl)-2-(methylamino)ethanone] | 150 nM

Same assay, conditions: Acinetobacter baumannii, ATCC17978, 16 h, 90% growth inhibitory concentration, Acinetobacter baumannii ATCC17978, Iso-Sensitest broth, OD 600 nm over 16 h; read-out: ATCC17978 IC90

Structure (SMILES) | IC90
N#Cc1cc(Nc2nccn3c(-c4ccc(OC(F)F)cc4)cnc23)ccc1C(=O)N1CCC(CN)CC1 [Example 27, 2-(4-(aminomethyl)piperidine-1-carbonyl)-5-((3-(4-(difluoromethoxy)phenyl)imidazo[1,2-a]pyrazin-8-yl)amino)benzonitrile] | 1500 nM
N#CCOc1ccc(-c2cnc3c(Nc4ccc(C(=O)N5CCN(C(=O)N6CCN[C@@H](CO)C6)CC5)c(Cl)c4)nccn23)c(F)c1F [Example 36, 2-[4-[8-[3-chloro-4-[4-[(3R)-3-(hydroxymethyl)piperazine-1-carbonyl]piperazine-1-carbonyl]anilino]imidazo[1,2-a]pyrazin-3-yl]-2,3-difluoro-phenoxy]acetonitrile] | 41 nM

Other lines, results leading:

IC90 | Structure (SMILES)
140 nM | COc1ccc(-c2cnc3c(Nc4ccc(C(=O)N5CCC(O)(CCN(C)C)CC5)c(Cl)c4)nccn23)cc1F [Example 28, (2-chloro-4-((3-(3-fluoro-4-methoxyphenyl)imidazo[1,2-a]pyrazin-8-yl)amino)phenyl)(4-(2-(dimethylamino)ethyl)-4-hydroxypiperidin-1-yl)methanone]
190 nM | N#CCOc1ccc(-c2cnc3c(Nc4ccc(C(=O)N5CCC(C(=O)N6CCNCC6CO)CC5)c(Cl)c4)nccn23)c(F)c1F (centres unmarked) [Example 30, 2-[4-[8-[3-chloro-4-[4-[2-(hydroxymethyl)piperazine-1-carbonyl]piperidine-1-carbonyl]anilino]imidazo[1,2-a]pyrazin-3-yl]-2,3-difluoro-phenoxy]acetonitrile trifluoroacetate]
320 nM | N#CCOc1ccc(-c2cnc3c(Nc4ccc(C(=O)N5CCC(C(=O)N6CCNCC6CO)CC5)c(Cl)c4)nccn23)c(Cl)c1F (centres unmarked) [Example 31, 2-[3-chloro-4-[8-[3-chloro-4-[4-[2-(hydroxymethyl)piperazine-1-carbonyl]piperidine-1-carbonyl]anilino]imidazo[1,2-a]pyrazin-3-yl]-2-fluoro-phenoxy]acetonitrile trifluoroacetate]
300 nM | CNCCNC(=O)C1CCN(C(=O)c2ccc(Nc3nccn4c(-c5ccc(OCC#N)c(F)c5F)cnc34)cc2Cl)CC1 [Example 32, 1-[2-chloro-4-[[3-[4-(cyanomethoxy)-2,3-difluoro-phenyl]imidazo[1,2-a]pyrazin-8-yl]amino]benzoyl]-N-[2-(methylamino)ethyl]piperidine-4-carboxamide trifluoroacetate]
570 nM | COc1ccc(-c2cnc3c(Nc4ccc(C(=O)N5CCOCC5)cc4)nccn23)cc1Cl [Example 38, (4-((3-(3-chloro-4-methoxyphenyl)imidazo[1,2-a]pyrazin-8-yl)amino)phenyl)(morpholino)methanone]
200 nM | COc1ccc(-c2cnc3c(Nc4ccc(C(=O)N5CCC(C(=O)N[C@@H]6CCNC6)CC5)c(Cl)c4)nccn23)c(F)c1F [Example 39, (R)-1-(2-chloro-4-((3-(2,3-difluoro-4-methoxyphe-nyl)imida-zo[1,2-a]pyrazin-8-yl)amino)benzoyl)-N-(pyrrolidin-3-yl)piperidine-4-carboxamide hydrochloride]
140 nM | COc1ccc(-c2cnc3c(Nc4ccc(C(=O)N5CCN(CCNCCO)CC5)c(Cl)c4)nccn23)cc1F [Example 43, (2-Chloro-4-((3-(3-fluoro-4-methoxyphenyl)imidazo[1,2-a]pyrazin-8-yl)amino)phenyl)(4-(2-((2-hydroxyethyl)amino)ethyl)piperazin-1-yl)methanone]
230 nM | NCC1CCN(C(=O)c2ccc(Nc3nccn4c(-c5ccc(OC(F)F)cc5)cnc34)cc2I)CC1 [Example 51, [4-(aminomethyl)piperidin-1-yl]-[4-[[3-[4-(difluoromethoxy)phenyl]imidazo[1,2-a]pyrazin-8-yl]amino]-2-iodophenyl]methanone; hydrochloride]
140 nM | COc1ccc(-c2cnc3c(Nc4ccc(C(=O)N5CCN(CCN(C)C)CC5)c(Cl)c4)nccn23)cc1F [Example 55, [2-chloro-4-[[3-(3-fluoro-4-methoxyphenyl)imidazo[1,2-a]pyrazin-8-yl]amino]phenyl]-[4-[2-(dimethylamino)ethyl]piperazin-1-yl]methanone;hydrochloride]

Same assay, conditions: Acinetobacter baumannii, ATCC17978, 16 h, read-out: ATCC17978 IC90

Structure (SMILES) | IC90
N#CCOc1ccc(-c2cnc3c(Nc4ccc(C(=O)N5CCN(C(=O)[C@@H]6C[C@@H](O)CN6)CC5)c(Cl)c4)nccn23)c(F)c1F [Example 34, 2-[4-[8-[3-chloro-4-[4-[(2S,4R)-4-hydroxypyrrolidine-2-carbonyl]piperazine-1-carbonyl]anilino]imidazo [1,2-a]pyrazin-3-yl]-2,3-difluroo-phenoxy]acetonitrile formate] | 31 nM
CC(C#N)Oc1ccc(-c2cnc3c(Nc4ccc(C(=O)N5CCN(CCN(C)C)CC5)c(Cl)c4)nccn23)c(F)c1F (centres unmarked) [Example 41, 2-[4-[8-[3-chloro-4-[4-[2-(dimethylamino)ethyl]piperazine-1-carbonyl]anilino]imi-dazo[1,2-a]pyrazin-3-yl]-2,3-difluoro-phenoxy]propanenitrile formate] | 130 nM
CC(C#N)Oc1ccc(-c2cnc3c(Nc4ccc(C(=O)N5CCN(CCCN(C)C)CC5)c(Cl)c4)nccn23)c(F)c1F (centres unmarked) [Example 42, 2-[4-[8-[3-chloro-4-[4-[3-(dimethylamino)pro-pyl]piperazine-1-carbonyl]anilino]imi-dazo[1,2-a]pyrazin-3-yl]-2,3-difluoro-phenoxy]propanenitrile] | 200 nM
CNCCNC(=O)C1CCN(C(=O)c2ccc(Nc3nccn4c(-c5ccc(OC)c(F)c5)cnc34)cc2Br)CC1 [Example 44, 1-(2-bromo-4-((3-(3-fluoro-4-methoxyphenyl)imidazo[1,2-a]pyrazin-8-yl)amino)benzoyl)-N-(2-(methylamino)ethyl)piperidine-4-carboxamide; Formic Acid] | 300 nM
N#CCOc1ccc(-c2cnc3c(Nc4ccc(C(=O)N5CCC(C(=O)N6CCN[C@H](C(=O)O)C6)CC5)c(Cl)c4)nccn23)c(F)c1F [Example 45, (2S)-4-[1-[2-chloro-4-[[3-[4-(cyanomethoxy)-2,3-difluoro-phenyl]imidazo[1,2-a]pyrazin-8-yl]amino]benzoyl]piperidine-4-carbonyl]piperazine-2-carboxylic Acid; Formic Acid] | 880 nM
N#CCOc1ccc(-c2cnc3c(Nc4ccc(C(=O)N5CCC(C(=O)N6CCN[C@@H](C(=O)O)C6)CC5)c(Cl)c4)nccn23)c(F)c1F [Example 46, (R)-4-(1-(2-chloro-4-((3-(4-(cyanomethoxy)-2,3-difluorophenyl)imidazo[1,2-a]pyrazin-8-yl)amino)benzoyl)piperidine-4-carbonyl)piperazine-2-carboxylic Acid; Formic Acid] | 890 nM
N#CCOc1ccc(-c2cnc3c(Nc4ccc(C(=O)N5CCN(CCN6CCC(C(=O)O)C6)CC5)c(Cl)c4)nccn23)c(F)c1F (centres unmarked) [Example 47, 1-[2-[4-[2-chloro-4-[[3-[4-(cyanomethoxy)-2,3-difluoro-phenyl]imidazo[1,2-a]pyrazin-8-yl]amino]benzoyl]piperazin-1-yl]ethyl]pyrrolidine-3-carboxylic Acid Trifluoroacetate] | 430 nM
COc1ccc(-c2cnc3c(Nc4ccc(C(=O)N5CCC(C(=O)N6CCOC(CN)C6)CC5)c(Cl)c4)nccn23)cc1F (centres unmarked) [Example 52, [4-[2-(aminomethyl)morpholine-4-carbonyl]piperidin-1-yl]-[2-chloro-4-[[3-(3-fluoro-4-methoxyphenyl)imidazo[1,2-a]pyrazin-8-yl]amino]phenyl]methanone; hydrochloride] | 88 nM
CNCC(=O)N1CCN(C(=O)c2ccc(Nc3nccn4c(-c5ccc(OC)c(F)c5F)cnc34)cc2Cl)CC1 [Example 53, 1-[4-[2-chloro-4-[[3-(2,3-difluoro-4-methoxyphenyl)imidazo[1,2-a]pyrazin-8-yl]amino]benzoyl]piperazin-1-yl]-2-(methylamino)ethanone; hydrochloride] | 56 nM
COc1ccc(-c2cnc3c(Nc4ccc(C(=O)N5CCN(C(=O)C(O)CN)CC5)c(Cl)c4)nccn23)cc1F (centres unmarked) [Example 56, 3-amino-1-[4-[2-chloro-4-[[3-(3-fluoro-4-methoxyphenyl)imidazo[1,2-a]pyrazin-8-yl]amino]benzoyl]piperazin-1-yl]-2-hydroxypropan-1-one; hydrochloride] | 240 nM

Reference: patent US20230022724A1, “NOVEL IMIDAZOPYRAZINE DERIVATIVES” (Hoffmann-La Roche Inc., priority 2018, published 2023)
